Results on five molecules are retold here after patent publication US10653779B2, “Formulations with reduced oxidation” (Genentech, Inc., priority 2013, dated 2020).

“Also recorded” adds a separate entry of the source.

A short description of data set [1]: Cyclic voltammetry (CV) screening of oxidation potentials. In kind it is physicochemical. As to conditions: for Oxidation Potential (anodic peak): glassy carbon working electrode, 0.2 M lithium perchlorate. Here is the method:
The oxidation/reduction characteristics of the compounds were investigated. Several compounds, including L-Trp and derivatives, were evaluated for the protection of Trp oxidation in proteins using cyclic voltammetry (CV) and rank ordered based on their oxidation potentials (Table 2). Specifically, the candidate antioxidants were dissolved in deionized water and then added to a 0.2 M lithium perchlorate electrolyte solution. […] Solutions were scanned from −0.10 V to +1.50 V at a scan rate of either 100 or 500 mV/sec. The analytical cell was purged for four minutes with nitrogen before scanning of each antioxidant solution. The input was a linear scan of the potential of a working electrode, and the output was measurement of the resulting current. […] Redox reactions were characterized by sharp increases or decreases in current (peaks). The potential at which an oxidation reaction occurred was referred to as the anodic peak potential (or oxidation potential), and the potential at which a reduction occurred was referred to as is the cathodic peak (or reduction) potential.

The subject of data set [2] is mAb1. In words: mAb1 AAPH stress study; Fab/Fc oxidation by RP-HPLC. Format: physicochemical, human. The settings on record: antioxidants at 1 mM; for Fab (Trp residue) oxidation of mAb1 after AAPH incubation: 24 hours at 40° C., label mAb1 = no excipient. An excerpt: (§1) The fragments were reduced with DTT, and then separated and identified via Liquid Chromatography-Mass Spectrometry (LC-MS). […] Comparison of area integrated under the oxidized and native peaks was used to quantify HC Fab and Fc oxidation. […] By using the papain digest RP-HPLC method in the present study it was possible to investigate Trp residue oxidation by quantifying HC Fab oxidation, and Met residue oxidation by quantifying HC Fc oxidation.
% Fab oxidation and % Fc oxidation were calculated as follows: […]
Antioxidants were added at 1 mM. […] After buffer exchange, each solution was prepared for analysis by reverse-phase HPLC as described above.

Data set [3] has as its system mAb1. In words: mAb1 light stress study, 16 hours; Fab/Fc oxidation by RP-HPLC. In kind it is physicochemical, human. As to conditions: for Fab oxidation increase over the control level (mAb1 Ref Mat): label mAb1 = No Excipient. Here is the method:
as §1
Antioxidants were added at 1 mM. Glass vials containing these formulations were exposed to 250 W/m^2 light in an Atlas SunTest CPS+ Xenon Test Instrument (Chicago, Ill.). Control vials were wrapped in aluminum foil and treated similarly. After light exposure, solutions were prepared for analysis by reverse-phase HPLC as described above.

A short description of data set [4]: Photosensitivity screening: H2O2 formation by antioxidant candidates upon light exposure (Amplex Ultra Red Assay). Format: physicochemical. The procedure: As a screening tool, antioxidant candidates were exposed to light for four hours at 250 W/m^2 and the resulting H2O2 formation was quantified by the Amplexassay. Specifically, antioxidants were prepared to 1 mM in 20 mM histidine acetate buffer at pH 5.5. The 1 mM antioxidant solutions were aliquoted into glass vials (2 mL/glass vial) and exposed to four hours of light at 250 W/m^2 in an Atlas SunTest CPS+ Xenon Test Instrument (Chicago, Ill.). Total UV dose was 90 watt-hours/square meter and total visible dose was 0.22 million lux hours over the 4-hour period. Control vials were wrapped in aluminum foil and treated similarly. The amount of hydrogen peroxide generated after exposure to light was measured using the Amplex® Ultra Red Assay (Invitrogen, Carlsbad, Calif.) following the manufacturer's recommended procedure. On addition of horseradish peroxidase (HRP), the dye reacted 1:1 stoichiometrically with H2O2, resulting in the production of fluorescent oxidation product resorufin. In this study, fluorescence readings were obtained using a Spectra Max M2 Micro-plate Reader (Molecular Devices, Sunnyvale, Calif.) with excitation and emission set at 560 nm and 590 nm, respectively. Final H2O2 concentrations were determined using a standard curve ranging from 0 μm to 20 μm. […]

The test system of data set [5] is mAb1. The data set can be described thus: mAb1 Fenton stress study (H2O2 + Fe); Fab/Fc oxidation by RP-HPLC. In kind it is physicochemical, human. The settings on record: 10 ppm H2O2, 0.2 mM Fe(III), 40° C. for 3 hours, no excipient. The procedure: Antioxidants were added at a final concentration of 1 mM. […] After incubation, each reaction was quenched by addition of 100 mM L-Met and then prepared for analysis by reverse-phase HPLC as described above.
The Fenton reaction, using a mixture of H2O2 and Fe ions, generates oxidation through a metal catalyzed, hydroxyl radical reaction (Prousek et al., Pure and Applied Chemistry 79(12):2325-2338 (2007)). This reaction generated Fab, i.e. tryptophan, oxidation in mAb1. The reaction was also carried out in the presence of select antioxidants that were useful against both AAPH and light induced oxidation as reported above. Data related to the antioxidant properties against Fenton mediated reaction were analyzed using the RP-HPLC assay as described above. The Fenton reaction used 10 ppm of H2O2 and 0.2 mM of Fe(III). The reaction was incubated at 40° C. for 3 hours, quenched with 100 mM L-Met and analyzed using RP-HPLC after papain digest. All samples were the average of three separate vials, and mAb1 control (Ref Mat) was one vial with five independent injections on the HPLC. […] In regards to protection against Fc oxidation, the tested excipients (other than salicylic acid) performed slightly better than L-Trp.

For data set [6], the system named is mAb1. In words: mAb1 light stress, eight hours, with L-Trp and L-Met; Fab/Fc oxidation by papain digest RP-HPLC. In kind it is physicochemical, human. As to conditions: label mAb1 = No Excipient. Here is the method:
L-tryptophan (L-Trp), an antioxidant used in protein formulations, has been recently shown to be photosensitive (Igarashi et al., Anal Sci 23(8):943-8 (2007)) and to have the ability to produce H2O2 upon light exposure. […] Control vials were wrapped in aluminum foil and treated similarly. After light exposure, solutions were prepared for analysis by reverse-phase HPLC. […] Following incubation, 900 μL of the solution was combined with 100 μL of 1 M dithiothreitol (DTT) and incubated for another thirty minutes at 37° C. Samples were then run on an Agilent, Inc. 1100/1200 HPLC system (Santa Clara, Calif.) equipped with UV detection at 280 nm in conjunction with a Varian, Inc. Pursuit 3 μm, 2 mm ID×250 mm diphenyl column (Palo Alto, Calif.). Mobile Phase A was 0.1% TFA in water. Mobile Phase B was 0.1% TFA in acetonitrile. The mobile phase gradient increased linearly from 34% B at 0 minutes to 43% B at 50.0 minutes, then to 95% B at 50.1 minutes. The gradient remained at 95% B until 60.1 minutes, and then decreased linearly from 95% B to 34% B between 60.1 and 60.2 minutes. The gradient remained at 34% B until the end of the cycle at 80.2 minutes. The column temperature was 65° C., total flow rate was 0.2 mL/min, and injection volume of each sample was 6 μL. Chromatograms were then integrated for quantification of oxidation.

[7] abbreviates: 16 hours of light at 250 W/m^2, excipient 1 mM.
The mark [8] stands for this setting: 1 mM in 20 mM histidine acetate pH 5.5, four hours of light at 250 W/m^2.
Setting [9] is: 1 mM, 20 mM L-His-acetate pH 5.5, 4 h light, 0.22 million lux hours.

With `NCCc1c[nH]c2ccc(O)cc12` [Serotonin (5-Hydroxytryptamine), 5-hydroxytryptamine], the “Oxidation Potential (anodic peak)” value in data set [1] was found to be 0.600 V vs Ag/AgCl. The “Fab (Trp residue) oxidation of mAb1 after AAPH incubation” value (“Fab (Trp residue) oxidation of mAb1” below) in data set [2] was “about 2%”. Further, in data set [3] (setting [7]), the “Effect on light-induced Fab oxidation (in words)” value was “reducing Fab oxidation to near control levels”. Also, the “(H2O2 produced by Compound)/(H2O2 produced by L-Trp)” value in data set [4] (setting [8]) is on record as 0.03. For the same molecule, in data set [4] (setting [9]), the “H2O2 production upon light exposure compared to L-Trp (in words)” value is listed as “very little H2O2; also recorded: low levels of H2O2 production”.
Turning to `N[C@@H](Cc1c[nH]c2ccc(O)cc12)C(=O)O` [5-Hydroxy-L-Trp, 5-Hydroxy-Tryptophan], in data set [1], the “Oxidation Potential (anodic peak)” value is 0.565 V vs Ag/AgCl. For the same molecule, the “Fab (Trp residue) oxidation of mAb1” value in data set [2] is “about 2%”. Further, the “Effect on light-induced Fab oxidation (in words)” value in data set [3] (setting [7]) is “reducing Fab oxidation to near control levels”. Moreover, the “(H2O2 produced by Compound)/(H2O2 produced by L-Trp)” value in data set [4] (setting [8]) amounted to 0.09. For the same molecule, the “H2O2 production upon light exposure compared to L-Trp (in words)” value in data set [4] (1 mM, 20 mM L-His-acetate pH 5.5, 4 h light, 0.22 million lux hours, listed as 5-hydroxy-L-tryptophan) is listed as “about one tenth of the H2O2; also recorded: low levels of H2O2 production”.
For “mAb1: monoclonal anti-DR5 antibody, drozitumab (CAS number 912628-39-8), human monoclonal IgG1”, the “Oxidation in the Fab region of mAb1 over the control (in words)” value in data set [5] is “about four times the oxidation”. For the same molecule, the “Fab oxidation of mAb1” value in data set [6] (5 mg/mL mAb1, 8 h light at 250 W/m^2, L-Trp at 1 mM) worked out at 4%. In data set [6] (8 h light at 250 W/m^2, L-Met 10, 25, 50, 100 mM added to 1 mM L-Trp), the “Effect on Fc oxidation of mAb1 (in words)” value is recorded as “only a minor increase in Fc oxidation”. Besides, the “Increase in Fc oxidation over the control level” value in data set [3] (16 hours of light at 250 W/m^2, no excipient) came to 40%. Further, in data set [3] (setting [7]), the “Fab oxidation increase over the control level (mAb1 Ref Mat)” value stood at 3.5 fold.
For `Oc1ccc2[nH]ccc2c1` [5-Hydroxyindole, 5-Hydroxy Indole], the “Oxidation Potential (anodic peak)” value in data set [1] turned out to be 0.580 V vs Ag/AgCl. Further, the “Fab (Trp residue) oxidation of mAb1” value in data set [2] is “about 2%”. Also, in data set [3] (setting [7]), the “Effect on light-induced Fab oxidation (in words)” value was “reducing Fab oxidation to near control levels”. Further, in data set [4] (setting [8]), the “(H2O2 produced by Compound)/(H2O2 produced by L-Trp)” value is −0.08. Moreover, the “H2O2 production upon light exposure compared to L-Trp (in words)” value in data set [4] (setting [9]) is recorded as “low levels of H2O2 production”.
In the case of `O=C(O)c1ccccc1O` [Salicylic Acid], in data set [1] (cyclic voltammetry), the “Oxidation potential relative to L-Trp (in words)” value is listed as “higher oxidation potential than L-Trp”. Further, the “Oxidation Potential (anodic peak)” value in data set [1] is 1.080 V vs Ag/AgCl. Also, the “Effect on AAPH-induced Fab oxidation (in words)” value in data set [2] (AAPH 24 hours at 40° C.) is “almost no effect on Fab oxidation”. In addition, in data set [3] (setting [7]), the “Fc oxidation under light stress compared to no excipient control (in words)” value is reported as “more Fc oxidation” and the “Fab oxidation increase over the control level (mAb1 Ref Mat)” value was found to be 8 fold. Moreover, in data set [4] (pH 5.5), the “(H2O2 produced by Compound)/(H2O2 produced by L-Trp)” value amounted to 0.03 and the “H2O2 production upon light exposure compared to L-Trp (in words)” value is recorded as “very little H2O2; also recorded: did not produce much H2O2”.
